Test results reported in patent US8323917B2, “Method of screening for compounds that inhibit the enzymatic activity of GWT1 gene product” (priority 2002, dated 2012).

Key:
[1] = target: T1, GWT1 gene product (Gwt1 protein) in membrane fraction (Saccharomyces cerevisiae, UniProt P47026); assay: acylated GPI detection system (GPI acylation assay, TLC of GlcN-(acyl)PI); assay type: biochemical, S. cerevisiae; conditions: UDP-[14C]GlcNAc, TLC/autoradiography, FIGS. 3 and 4
T1 construct: made in house; host or cells: S. cerevisiae Δgwt1 strain carrying the YEp352GAPIIClaIΔSal-GWT1 overexpression plasmid; total membrane fraction
Experimental: Wild-type S. cerevisiae strain, the GWT1 gene-deficient strain Δgwt1, and the strain Δgwt1 into which the GWT1 overexpression plasmid was introduced were each cultured in 100 ml of YPD medium shaken at 24° C., and then harvested in the middle logarithmic growth phase (0D600=1˜3). The fungal cells were washed with TM buffer (50 mM Tris-HCl (pH 7.5) and 2 mM MgCl2), and then suspended in 2 ml of TM buffer+protease inhibitor (1 tablet of Complete™, protease inhibitor, (Roche)/25 ml). 1.5 ml of glass beads was added to the suspension. The mixture was vortexed for 30 seconds, and then placed on ice for 30 seconds. These procedures were repeated ten times to disrupt the fungal cells. The cell homogenate was transferred into a new tube, and centrifuged at 1000 g at 4° C. for five minutes to precipitate the glass beads and undisrupted fungal cells. The supernatant was transferred to another tube, and centrifuged at 13 000g at 4° C. for 20 minutes to precipitate the membrane fraction comprising organelles (total membrane fraction). The resulting precipitate was used as the membrane fraction.
The membrane fraction preparation (300 μg protein) was diluted with a buffer consisting of 50 mM Tris-HCl (pH7.5), 2 mM MgCl2, 2 mM MnCl2, 1 mM ATP, 1 mM Coenzyme A, 21 μg/ml tunicamycin, 10 μM nikkomycin Z, and 0.5 mM Dithiothreitol. The solution was adjusted to a total of 140 μl for use as a reaction solution. After incubating the solution at 24° C. for 15 minutes, 15 μCi UDP-[^14C]GlcNAc was added to the tube and then incubated at 24° C. for another one hour. 1 ml of chloroform:methanol (1:2) was added to the solution and stirred to stop the reaction. Then, lipid was extracted from the solution, dried, and desalted by butanol extraction. Acylated GPI (GlcN-(acyl)PI), non-acylated GPI (GlcN-PI), and GPI which was neither acylated nor deacylated (GlcNAc-PI) were separated by thin-layer chromatography (HCl3/CH3OH/1 M NH4OH (10:10:3)). Each spot was detected by autoradiography. […]

GWT1 gene products = conditions: reporter system reflecting the activity of the GWT1 gene products; cited from earlier work

T1 sequence (P47026 whole entry): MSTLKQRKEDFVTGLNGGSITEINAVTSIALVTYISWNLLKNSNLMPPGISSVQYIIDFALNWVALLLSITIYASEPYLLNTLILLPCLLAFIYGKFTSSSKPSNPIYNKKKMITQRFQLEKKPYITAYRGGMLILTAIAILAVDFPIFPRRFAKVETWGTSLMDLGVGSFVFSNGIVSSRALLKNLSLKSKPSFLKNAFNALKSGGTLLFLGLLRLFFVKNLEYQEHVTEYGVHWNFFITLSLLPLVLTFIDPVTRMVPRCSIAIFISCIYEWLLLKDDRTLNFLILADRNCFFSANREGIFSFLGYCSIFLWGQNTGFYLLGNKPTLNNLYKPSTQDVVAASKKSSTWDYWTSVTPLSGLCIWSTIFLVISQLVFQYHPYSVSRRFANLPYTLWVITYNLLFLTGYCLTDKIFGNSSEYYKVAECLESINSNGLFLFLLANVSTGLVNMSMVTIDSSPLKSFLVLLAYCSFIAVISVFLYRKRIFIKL

SMILES | spot intensity of acylated GPI (GlcN-(acyl)PI) [1] | inhibitory activity IC50 (Table 1 in WO 02/04626) (GWT1 gene products)
CCCCc1ccc(Cc2nccc3ccccc23)cc1 [Example B2, 1-(4-butylbenzyl)isoquinoline] | dose-dependent decrease | –
CC(=O)N(C)CCCc1ccc(Cc2nccc3ccccc23)cc1 [Example B73, N-(3-(4-(1-isoquinolylmethyl)phenyl)propyl)-N-methylacetamide] | not observed to decrease | 50 µg/mL
CCCCc1ccc(Cc2nccc3ccccc23)c(O)c1 [Example B85, 5-butyl-2-(1-isoquinolylmethyl)phenol] | dose-dependent decrease | –
